Data set [1] has as its system Trichophyton mentagrophytes. Kind of data set: Agar plate disc diffusion test, zone of inhibition. The format is cell-based. The settings on record: 7 mm disc.
Experimental: (§1) ^(a) Compounds were tested as suspension in methanol.
(§2) were tested at a concentration of 1 mg/ml by a dipping 7mm disc into the
(§3) suspension and placing it on the agar surface. Incubation: 24-48 hours at
Data set [2] deals with Candida albicans A-26. Nature of the data set: Therapeutic activity against Candida albicans A-26 infection in mice. The format is in vivo. The settings on record: A26, sc, subcutaneous at 0, 4 and 24 hours post infection; for ED50: dose to cure 50% of test animals, by increase in survival time, read-out: ED50; for minimal effective dose: lowest dose with significant anti-fungal effect, read-out: Lowest Active Dose. As to the method:
The results of in vivo tests to evaluate the effectiveness of the compound of Examples 61-81, 86 and 88 against an infection caused by Candida albicans A-26 in mice are given in Table 7, where activity is measured by the ED50 value (the dose in mg/kg. required to cure 50% of the test animals). Where an ED50 value was not obtained, activity is indicated by the lowest dose at which a significant anti-fungal effect is observed. In this test, groups of male albino mice (specific pathogen free), weighing 18 to 20 grams, are infected intravenously with Candida albicans A-26. The animals are X-irradiated 24 hours prior to infection at about 50 roentgens per minute for 8 minutes (400 total dose) to reduce immune responses to the infecting organism. At 0, 4, and 24 hours post infection each group of mice is given graded doses subcutaneously of the test compound as a suspension in 33% polyethylene glycol-water. The day of death for each animal is recorded.
*Dosage Schedule: 40, 20, 15, and 10 mg/kg. Dosages given 0, 4, and 24
hours post injection as suspension of test compound in 30% PEGH2 O.
Number of mice receiving test compounds at each dosage level: 6 mice per
group. Number of mice in control (untreated) group: 10 mice per group.
**As measured by increase in survival time of treated animals versus
control, calculated by method of Reed V. Mueuch, American J. Hygiene, 493

The subject of data set [3] is Trychophyton mentagrophytes #6. Kind of data set: Agar plate disc diffusion test, MIC per disc. The format is cell-based. The settings on record: 0.01M sodium borate, pH 7.5, 24 hours at 30° C.
Experimental: (§4) In Table 5, activity is measured by the minimal inhibitory concentration (MIC) of the substance (μg/disc) required to inhibit growth of the test organism.
(§5) *Compounds were suspended in 0.01M sodium borate solution, pH 7.5.
(§6) compounds were tested at 20 μg/disc at top level and at twofold
(§7) dilutions until end points were reached.
Data set [4] relates to Candida albicans A-26. Nature of the data set: Agar plate disc diffusion test, MIC per disc. The following applies: 0.01M sodium borate, pH 7.5, 24 hours at 30° C. The format is cell-based.
Experimental: as §4, §5, §6, §7
In the next data set the test system is Neurospora Crassa 846. Nature of the data set: Agar plate disc diffusion test, zone of inhibition. The format is cell-based. The settings on record: 7 mm disc; for zone of inhibition at 1000 µg/mL: Neurospora crassa.
A short description of another data set: in vivo. The settings on record: mouse, po, 416 mg/kg.
Data set [5] deals with Saccharomyces pastorianus X-52. Kind of data set: Agar plate disc diffusion test, zone of inhibition. The settings on record: Saccharomyces pastorianus X-52, 1 mg/ml suspension in methanol, 7 mm disc, 24-48 hours at 25-37° C.; for zone of inhibition at 1000 µg/mL: Saccharomyces pastorianus, X52, 48 h, read-out: Size of Zone of Inhibition. The format is cell-based.
Experimental: as §1, §2, §3
The test system of data set [6] is Candida albicans A-26. Kind of data set: Agar plate disc diffusion test, zone of inhibition. The settings on record: 7 mm disc; for Size of Zone of Inhibition: 1 mg/ml suspension in methanol, 24-48 hours at 25-37° C., no regrowth mark. The format is cell-based.
Experimental: as §1, §2, §3
The conditions of data set [7]: mouse, in vivo, 416 mg/kg, 240 min.
Experimental: (§8) In this test, mice are gavaged with a dose of 416 mg/kg of the test compound suspended in 33% PEG 400-water. At time intervals, blood samples are taken from the orbital sinus and are assayed for antibiotic activity as follows: A 7 mm. disc containing 20 μl of whole blood is placed on agar seeded with Aspergillus montevidensis A35137. After 40 hours incubation at 30° C. zones of inhibition from the blood samples are compared to a standard obtained from the test compound, and the amount of compound in the blood sample is calculated.
[8] abbreviates: 1 mg/ml, * measurable zone of inhibition with regrowth of organism around disc, read-out: Size of Zone of Inhibition (*).
The mark [9] stands for this setting: CRASSA846, Neurospora Crassa 846, 1 mg/ml, * measurable zone of inhibition with regrowth of organism around disc, read-out: Size of Zone of Inhibition (*).
Where [10] appears, read: 1 mg/ml, * measurable zone of inhibition with regrowth of organism around disc.

Where “and” joins values, the source holds several entries; their conditions need not be identical. Identical values can stand only once. Like-named read-outs stand apart in the source and are kept apart here. Numbered stars: 1 amine (or outer) side, 2 acyl side, 3 side chain; on linkers, the order of the positions; unused ones are H or OH. Bridge positions count the residues as written; N and C are the ends. Square brackets hold non-standard residues; d marks the D form. Peptide text beside a SMILES is read from it. * marks the point of attachment. Orn(4R-OH,5R-OH) = O=C([C@H](C[C@@H](O)[C@@H](O)N[*:3])N[*:1])[*:2]; hTyr(3S-OH,4S-OH) = N[C@H](C(=O)O)[C@H](O)[C@@H](O)c1ccc(O)cc1; Pro(3S-OH,4S-Me) = C[C@H]1CN[C@H](C(=O)O)[C@H]1O; X6 = O=C(C=Cc1ccc(N[*:1])cc1)[*:2]; Hyp = O=C(O)[C@@H]1C[C@@H](O)CN1; X2 = O=C(Cc1ccc(N[*:1])cc1)[*:2]; Lauroyl = CCCCCCCCCCCC(=O)*; Aun = NCCCCCCCCCCC(=O)O

Experimental for Neurospora Crassa 846: as §1, §2, §3
Experimental for in vivo: as §8

For the compound `CCCCCCCCCCCC(=O)Nc1ccc(C=CC(=O)N[C@H]2C[C@@H](O)[C@@H](O)NC(=O)[C@@H]3[C@@H](O)[C@@H](C)CN3C(=O)[C@H]([C@@H](C)O)NC(=O)[C@H]([C@H](O)[C@@H](O)c3ccc(O)cc3)NC(=O)[C@@H]3C[C@@H](O)CN3C(=O)[C@H]([C@@H](C)O)NC2=O)cc1` [Example 73] (Lauroyl-[X6][Orn(4R-OH,5R-OH)]T[Hyp][hTyr(3S-OH,4S-OH)]T[Pro(3S-OH,4S-Me)]; lactam 2-C), the zone of inhibition at 1000 µg/mL was determined as 24 mm in data set [1] (setting [8]), 29 mm in the data set with Neurospora Crassa 846 (setting [9]) and 17 mm in data set [5]. For the same compound, the ED50 in the data set on Candida albicans A-26 [2] came out at 24 mg/kg. In addition, the minimal effective dose in the data set on Candida albicans A-26 [2] is 20 mg/kg. Moreover, the results for the MIC (in [3]; against Candida albicans A-26 [4]) were less than 0.039 μg/disc and 1.25 μg/disc, respectively. Moreover, the concentration at 4 h in the data set “in vivo” was determined as 1310 ng/mL. In addition, in the data set on Candida albicans A-26 [6] (setting [10]), the “Size of Zone of Inhibition (*)” value is listed as 60 mm.

On to `CCCCCCCCCCCC(=O)NCCCCCCCCCCC(=O)N[C@H]1C[C@@H](O)[C@@H](O)NC(=O)[C@@H]2[C@@H](O)[C@@H](C)CN2C(=O)[C@H]([C@@H](C)O)NC(=O)[C@H]([C@H](O)[C@@H](O)c2ccc(O)cc2)NC(=O)[C@@H]2C[C@@H](O)CN2C(=O)[C@H]([C@@H](C)O)NC1=O` [Example 63] ({Lauroyl-Aun}-[Orn(4R-OH,5R-OH)]T[Hyp][hTyr(3S-OH,4S-OH)]T[Pro(3S-OH,4S-Me)]; lactam 1-C), for which the “Size of Zone of Inhibition (*)” value in [1] (setting [10]) came to 63 mm. The zone of inhibition at 1000 µg/mL in data set [1] (setting [8]) is 55 mm; in data set [1] (48 h, 1 mg/ml suspension in methanol, 24-48 hours at 25-37° C., no regrowth mark, read-out: Size of Zone of Inhibition), 56 mm; in the data set on Neurospora Crassa 846 (CRASSA846, 48 h, Neurospora Crassa 846, 1 mg/ml suspension in methanol, 24-48 hours at 25-37° C., no regrowth mark, read-out: Size of Zone of Inhibition), 35 mm; in the data set with Neurospora Crassa 846 (setting [9]) it was 28 mm; in data set [5], 15 mm. Further, the ED50 in the data set with Candida albicans A-26 [2] is more than 40 mg/kg. Further, the minimal effective dose in the data set on Candida albicans A-26 [2] was more than 40 mg/kg. Further, the MIC was 0.156 μg/disc in data set [3]; 2.5 μg/disc and 1.25 μg/disc in the data set on Candida albicans A-26 [4]. For the same compound, the “Size of Zone of Inhibition” value in the data set with Neurospora Crassa 846 (Neurospora Crassa 846, 1 mg/ml suspension in methanol, 24-48 hours at 25-37° C., no regrowth mark) was 28 mm; in data set [5], 18 mm; in the data set with Candida albicans A-26 [6], 24 mm and 25 mm. The compound also registered a concentration at 4 h in the data set “in vivo” of 400 ng/mL. The “Blood Levels” value in data set [7] was 0 ng/mL.

Regarding `CCCCCCCCCCCC(=O)Nc1ccc(CC(=O)N[C@H]2C[C@@H](O)[C@@H](O)NC(=O)[C@@H]3[C@@H](O)[C@@H](C)CN3C(=O)[C@H]([C@@H](C)O)NC(=O)[C@H]([C@H](O)[C@@H](O)c3ccc(O)cc3)NC(=O)[C@@H]3C[C@@H](O)CN3C(=O)[C@H]([C@@H](C)O)NC2=O)cc1` [Example 72] (Lauroyl-[X2][Orn(4R-OH,5R-OH)]T[Hyp][hTyr(3S-OH,4S-OH)]T[Pro(3S-OH,4S-Me)]; lactam 2-C), the zone of inhibition at 1000 µg/mL stood at 55 mm in data set [1] (setting [8]), 30 mm in the data set on Neurospora Crassa 846 (setting [9]) and 20 mm in data set [5]. Also, the ED50 in the data set with Candida albicans A-26 [2] is more than 40 mg/kg. Besides, the minimal effective dose in the data set on Candida albicans A-26 [2] worked out at 40 mg/kg. For the same compound, the results for the MIC (in data set [3]; against Candida albicans A-26 [4]) were 0.078 μg/disc and 2.5 μg/disc, respectively. This compound had a concentration at 4 h in the data set “in vivo” of 340 ng/mL. Further, the “Size of Zone of Inhibition” value in the data set with Candida albicans A-26 [6] is on record as 19 mm.

Source of the values: patent US4293483A, “Derivatives of A-30912A nucleus” (priority 1980, dated 1981).
